# Data as given in patent US9623016B2, “Antibacterial compounds” (Emergent Virology LLC, priority 2013, dated 2017).
# Key:
# B. subtilus ATCC 6051 = assay: Disc diffusion; type: cell-based
# Method: (§1) Different concentrations of antimicrobial discs were made by incorporation of defined amount of the compound and were stored in a refrigerator (4° C.). Plates were swabbed in three directions with test bacteria to give uniform growth with 0.5 McFarland inocula. Antimicrobial discs were applied to the plates as soon as possible, but no longer than 15 minutes after inoculation. The plates were incubated at 37° C. for 18 hours. The growth inhibition zones around the disc were measured.
# [1] = tested on: E. coli In-house WT (SLR-IBT); assay: Disc diffusion; type: cell-based
# Method: as §1
# E. coli K12 = assay: Disc diffusion; type: cell-based
# Method: as §1
# P. aeruginosa 4858 [2] = assay: Disc diffusion; type: cell-based
# Method: as §1
# P. aeruginosa 4961 = assay: Disc diffusion; type: cell-based
# Method: as §1
# P. aeruginosa 4990 = assay: Disc diffusion; type: cell-based
# Method: as §1
# S. aureus 8325-4 = assay: Disc diffusion; type: cell-based
# Method: as §1
# S. aureus Col (MRSA) = assay: Disc diffusion; type: cell-based
# Method: as §1
# S. aureus USA300 = assay: Disc diffusion; type: cell-based
# Method: as §1
# S. pneumoniae ATCC 6301 = assay: Disc diffusion; type: cell-based
# Method: as §1
# S. aureus (USA300) [3] = assay: Minimum Inhibitory Concentration (MIC); type: cell-based; settings: for visible growth: Table 3; for growth (OD600): Table 4
# Method: The MIC assay is a technique used to determine the lowest concentration of a particular antibiotic needed to inhibit visible growth of bacteria. In this method, two fold serial dilutions of the compound were prepared in broth media. An inoculum of overnight bacterial cultures will be prepared in the same broth medium. The serial dilution tubes will be inoculated with 0.025 ml of undiluted over-night culture (1:100), a 1×10-2 dilution (1:10,000), or a 1×10-4 dilution (1:1,000,000) of bacterial suspension. Results were recorded after 24 hour incubation at 35° C. without shaking by measuring OD600. The MIC is determined by the lowest concentration of compound where no growth is visible.
# B. subtilis = assay: Minimum Bactericidal Concentration (MBC); type: cell-based
# Method: (§2) MBC is the lowest concentration of compound required to kill an organism. […] In the case of small colony variants, growth might not occur earlier than 48 hours.
# P. aeruginosa 4858 [4] = assay: Minimum Bactericidal Concentration (MBC); type: cell-based
# Method: as §2
# S. aureus (8324-5) = assay: Minimum Bactericidal Concentration (MBC); type: cell-based
# Method: as §2
# S. aureus (Col) = assay: Minimum Bactericidal Concentration (MBC); type: cell-based
# Method: as §2
# S. aureus (USA300) [5] = assay: Minimum Bactericidal Concentration (MBC); type: cell-based
# Method: as §2
# S. aureus = assay: Minimum Bactericidal Concentration (MBC); type: cell-based; settings: UV-5; S. Aureus NCTC8325-4
# Method: as §2
# [6] = tested on: Staphylococcus aureus USA300
# Method: The challenge inoculum included 6.13e4 cfu USA300+3% Hog mucin which causes bacteremia/sepsis within 24-72 h. […] The mice used were 6-8 week old female BALB/c mice in groups of 10. One group of 5 mice was also included to examine the potential toxicity of 3% hog mucin. Endpoint was day 10 post infection, death, or euthanasia Animals displaying severe illness as determined by >30% weight loss, extreme lethargy, or paralysis were euthanized. Observation included daily weight, health checks, and temperatures starting with the initiation of dosing until 10 days post challenge.
compound,measurement,setting,value
"CC[C@H]1OC(=O)[C@H](C)[C@@H](O[C@H]2C[C@@](C)(OC)[C@@H](O)[C@H](C)O2)[C@H](C)[C@@H](O[C@@H]2O[C@H](C)C[C@H](N(C)C)[C@H]2O)[C@](C)(O)C[C@@H](C)C(=O)[C@H](C)[C@@H](O)[C@]1(C)O [Erythromycin, reference compound]",zone of inhibition at 10 µg/disc,B. subtilus ATCC 6051; read-out: Inhibition zone diameter,35 mm
same,zone of inhibition at 10 µg/disc,"[1]; Escherichia coli, read-out: Inhibition zone diameter",15 mm
same,zone of inhibition at 10 µg/disc,"E. coli K12; Escherichia coli, K12, read-out: Inhibition zone diameter",20 mm
same,zone of inhibition at 10 µg/disc,"P. aeruginosa 4858 [2]; Pseudomonas aeruginosa, 4858, read-out: Inhibition zone diameter",8 mm
same,zone of inhibition at 10 µg/disc,"P. aeruginosa 4961; Pseudomonas aeruginosa, 4961, read-out: Inhibition zone diameter",18 mm
same,zone of inhibition at 10 µg/disc,"P. aeruginosa 4990; Pseudomonas aeruginosa, 4990, read-out: Inhibition zone diameter",20 mm
same,zone of inhibition at 10 µg/disc,"S. aureus 8325-4; Staphylococcus aureus, 83254, read-out: Inhibition zone diameter",35 mm
same,zone of inhibition at 10 µg/disc,"S. aureus Col (MRSA); Staphylococcus aureus, MRSA, read-out: Inhibition zone diameter",42 mm
same,zone of inhibition at 10 µg/disc,"S. aureus USA300; Staphylococcus aureus, USA300, read-out: Inhibition zone diameter",15 mm
same,zone of inhibition at 10 µg/disc,"S. pneumoniae ATCC 6301; Streptococcus pneumoniae, ATCC6301, read-out: Inhibition zone diameter",38 mm
same,visible growth,S. aureus (USA300) [3]; Erythromycin 0.20 ug/ml,+
same,growth (OD600),S. aureus (USA300) [3]; Erythromycin 0.20 ug/ml,+ (+ OD600 <0.05)
same,visible growth,S. aureus (USA300) [3]; Erythromycin 0.39 ug/ml,+
same,growth (OD600),S. aureus (USA300) [3]; Erythromycin 0.39 ug/ml,+ (+ OD600 <0.05)
same,visible growth,S. aureus (USA300) [3]; Erythromycin 0.78 ug/ml,+
same,growth (OD600),S. aureus (USA300) [3]; Erythromycin 0.78 ug/ml,+ (+ OD600 <0.05)
same,visible growth,S. aureus (USA300) [3]; Erythromycin 1.56 ug/ml,+
same,growth (OD600),S. aureus (USA300) [3]; Erythromycin 1.56 ug/ml,+ (+ OD600 <0.05)
same,visible growth,S. aureus (USA300) [3]; Erythromycin 3.13 ug/ml,+
same,growth (OD600),S. aureus (USA300) [3]; Erythromycin 3.13 ug/ml,+ (+ OD600 <0.05)
same,visible growth,S. aureus (USA300) [3]; Erythromycin 6.25 ug/ml,+
same,growth (OD600),S. aureus (USA300) [3]; Erythromycin 6.25 ug/ml,+ (+ OD600 <0.05)
same,visible growth,S. aureus (USA300) [3]; Erythromycin 25.00 ug/ml,−
same,growth (OD600),S. aureus (USA300) [3]; Erythromycin 25.00 ug/ml,− (− OD600 >0.05)
same,visible growth,S. aureus (USA300) [3]; Erythromycin 50 ug/ml,−
same,growth (OD600),S. aureus (USA300) [3]; Erythromycin 50 ug/ml,− (− OD600 >0.05)
same,visible growth,S. aureus (USA300) [3]; Erythromycin 100 ug/ml,−
same,growth (OD600),S. aureus (USA300) [3]; Erythromycin 100 ug/ml,− (− OD600 >0.05)
"[N-]=[N+]=Nc1ccc(NCCCCCCN2C[C@H](O)[C@@H](O)[C@H](O)[C@H]2CO)c([N+](=O)[O-])c1 [UV-5, N—(N-{4′-azido-2′-nitrophenyl}-6-aminohexyl)deoxynojirimycin]",Inhibition zone diameter,B. subtilus ATCC 6051; UV-5 160 ug disc,18 mm
same,Inhibition zone diameter,[1]; UV-5 160 ug disc,15 mm
same,Inhibition zone diameter,E. coli K12; UV-5 160 ug disc,12 mm
same,Inhibition zone diameter,P. aeruginosa 4858 [2]; UV-5 160 ug disc,6 mm
same,Inhibition zone diameter,P. aeruginosa 4961; UV-5 160 ug disc,14 mm
same,Inhibition zone diameter,P. aeruginosa 4990; UV-5 160 ug disc,6 mm
same,Inhibition zone diameter,S. aureus 8325-4; UV-5 160 ug disc,16 mm
same,Inhibition zone diameter,S. aureus Col (MRSA); UV-5 160 ug disc,16 mm
same,Inhibition zone diameter,S. aureus USA300; UV-5 160 ug disc,16 mm
same,Inhibition zone diameter,S. pneumoniae ATCC 6301; UV-5 160 ug disc,17 mm
same,MBC,B. subtilis; UV-5,2500 µg/mL
same,growth after re-inoculation on BHI agar,B. subtilis; UV-5 0.16 mg/ml,+
same,growth after re-inoculation on BHI agar,B. subtilis; UV-5 0.3 mg/ml,+
same,growth after re-inoculation on BHI agar,B. subtilis; UV-5 0.62 mg/ml,+
same,growth after re-inoculation on BHI agar,B. subtilis; UV-5 10 mg/ml,−
same,growth after re-inoculation on BHI agar,B. subtilis; UV-5 20 mg/ml,−
same,MBC,P. aeruginosa 4858 [4]; UV-5,5000 µg/mL
same,growth after re-inoculation on BHI agar,P. aeruginosa 4858 [4]; UV-5 0.16 mg/ml,+
same,growth after re-inoculation on BHI agar,P. aeruginosa 4858 [4]; UV-5 0.3 mg/ml,+
same,growth after re-inoculation on BHI agar,P. aeruginosa 4858 [4]; UV-5 0.62 mg/ml,+
same,growth after re-inoculation on BHI agar,P. aeruginosa 4858 [4]; UV-5 2.5 mg/ml,+
same,growth after re-inoculation on BHI agar,P. aeruginosa 4858 [4]; UV-5 5 mg/ml,−
same,growth after re-inoculation on BHI agar,P. aeruginosa 4858 [4]; UV-5 10 mg/ml,−
same,growth after re-inoculation on BHI agar,P. aeruginosa 4858 [4]; UV-5 20 mg/ml,−
same,growth after re-inoculation on BHI agar,S. aureus (8324-5); UV-5 0.16 mg/ml,+
same,growth after re-inoculation on BHI agar,S. aureus (8324-5); UV-5 0.3 mg/ml,+
same,growth after re-inoculation on BHI agar,S. aureus (8324-5); UV-5 0.62 mg/ml,+
same,growth after re-inoculation on BHI agar,S. aureus (8324-5); UV-5 2.5 mg/ml,+
same,growth after re-inoculation on BHI agar,S. aureus (8324-5); UV-5 5 mg/ml,+
same,growth after re-inoculation on BHI agar,S. aureus (8324-5); UV-5 10 mg/ml,−
same,growth after re-inoculation on BHI agar,S. aureus (8324-5); UV-5 20 mg/ml,−
same,growth after re-inoculation on BHI agar,S. aureus (Col); UV-5 0.16 mg/ml,+
same,growth after re-inoculation on BHI agar,S. aureus (Col); UV-5 0.3 mg/ml,+
same,growth after re-inoculation on BHI agar,S. aureus (Col); UV-5 0.62 mg/ml,+
same,growth after re-inoculation on BHI agar,S. aureus (Col); UV-5 10 mg/ml,−
same,growth after re-inoculation on BHI agar,S. aureus (Col); UV-5 20 mg/ml,−
same,MBC,"S. aureus (Col); UV-5, S. aureus COL MRSA",2500 µg/mL
same,MBC,S. aureus (USA300) [5]; UV-5,20000 µg/mL
same,growth after re-inoculation on BHI agar,S. aureus (USA300) [5]; UV-5 0.16 mg/ml,+
same,growth after re-inoculation on BHI agar,S. aureus (USA300) [5]; UV-5 0.3 mg/ml,+
same,growth after re-inoculation on BHI agar,S. aureus (USA300) [5]; UV-5 0.62 mg/ml,+
same,growth after re-inoculation on BHI agar,S. aureus (USA300) [5]; UV-5 2.5 mg/ml,+
same,growth after re-inoculation on BHI agar,S. aureus (USA300) [5]; UV-5 5 mg/ml,+
same,growth after re-inoculation on BHI agar,S. aureus (USA300) [5]; UV-5 10 mg/ml,+
same,growth after re-inoculation on BHI agar,S. aureus (USA300) [5]; UV-5 20 mg/ml,−
same,MBC,S. aureus,10000 µg/mL
same,significance of survival increase vs water,[6]; 100 mg/kg UV-5 BID,not a statistically significant increase in survival
same,survival,"[6]; 100 mg/kg UV-5 orally BID for 10 days, from 3 days before IP challenge, water control 30%",70%
same,toxicity at the dose/regimen used,"[6]; 100 mg/kg UV-5 orally BID, mice",some toxicity was observed
